From publication PMC7926352, “Synthesis, Characterization and In Vitro Evaluation of Novel 5-Ene-thiazolo[3,2-b][1,2,4]triazole-6(5H)-ones as Possible Anticancer Agents” (Molecules, 2021)
Read-outs that look alike come from different tables or passages of the source.

How the values were obtained:
COLO 205 = assay type: cell-based; settings: COLO 205, Colon cancer; for CC50: read-out: LC50 (the source's name)
[1] = Homo sapiens, read-out: GI50, panel MG_MID
[2] = Homo sapiens, read-out: GI50, values range inside panel
[3] = Homo sapiens, read-out: LC50, panel MG_MID
[4] = Homo sapiens, read-out: LC50, values range inside panel

## O=C(COc1ccc(Cl)cc1/C=c1\sc2ncnn2c1=O)Nc1ccc(Cl)cc1 [Compound 2h, (Z)-2-(4-Chloro-2-((6-oxothiazolo[3,2-b][1,2,4]triazol-5(6H)-ylidene)methyl)phenoxy)-N-(4-chlorophenyl)acetamide]
COLO 205
  TGI: 19.95 µM
COLO 205; Homo sapiens
  GI50: 7.58 µM
  CC50: 44.7 µM
HOP-62; HOP-62, NSCLC
  TGI: 16.59 µM
HOP-62; Homo sapiens, HOP-62
  GI50: 4.67 µM
HOP-62; Homo sapiens, HOP-62, read-out: LC50
  CC50: 42.6 µM
HCC-2998; HCC-2998, Colon cancer
  TGI: 18.62 µM
HCC-2998; Homo sapiens, HCC 2998
  GI50: 7.07 µM
HCC-2998; Homo sapiens, HCC 2998, read-out: LC50
  CC50: 43.6 µM
HCT-116; HCT-116, Colon cancer
  TGI: 20.89 µM
HCT-116; Homo sapiens, HCT-116
  GI50: 7.58 µM
HCT-116; Homo sapiens, HCT-116, read-out: LC50
  CC50: 45.7 µM
HCT-15; HCT-15, Colon cancer
  TGI: 21.37 µM
HCT-15; Homo sapiens, HCT-15
  GI50: 9.33 µM
HCT-15; Homo sapiens, HCT-15, read-out: LC50
  CC50: 45.7 µM
HT29; HT29, Colon cancer
  TGI: 15.13 µM
HT29; Homo sapiens, HT-29
  GI50: 4.67 µM
HT29; Homo sapiens, HT-29, read-out: LC50
  CC50: 38.9 µM
SW-620; Homo sapiens, SW-620
  GI50: 4.26 µM
SW-620; Homo sapiens, SW-620, read-out: LC50
  CC50: 38 µM
SW-620; SW-620, Colon cancer
  TGI: 14.79 µM
SF-295; Homo sapiens, SF-295
  GI50: 1.86 µM
SF-295; Homo sapiens, SF-295, read-out: LC50
  CC50: 18.6 µM
SF-295; SF-295, CNS Cancer
  TGI: 5.24 µM
SF-539; Homo sapiens, SF-539
  GI50: 1.77 µM
SF-539; Homo sapiens, SF-539, read-out: LC50
  CC50: 12.6 µM
SF-539; SF-539, CNS Cancer
  TGI: 4.46 µM
SNB-75; Homo sapiens, SNB-75
  GI50: 3.38 µM
SNB-75; Homo sapiens, SNB-75, read-out: LC50
  CC50: 87.1 µM
SNB-75; SNB-75, CNS Cancer
  TGI: 15.48 µM
LOX IMVI; Homo sapiens
  GI50: 2.63 µM
LOX IMVI; Homo sapiens, read-out: LC50
  CC50: 33.1 µM
LOX IMVI; Melanoma
  TGI: 11.22 µM
M14; Homo sapiens, M14
  GI50: 8.31 µM
M14; Homo sapiens, M14, read-out: LC50
  CC50: 45.7 µM
M14; M14, Melanoma
  TGI: 20.89 µM
SK-MEL-5; Homo sapiens, SK-MEL-5
  GI50: 3.23 µM
SK-MEL-5; Homo sapiens, SK-MEL-5, read-out: LC50
  CC50: 38 µM
SK-MEL-5; SK-MEL-5, Melanoma
  TGI: 14.79 µM
OVCAR-5; Homo sapiens, OVCAR-5
  GI50: 11.2 µM
OVCAR-5; Homo sapiens, OVCAR-5, read-out: LC50
  CC50: 47.9 µM
OVCAR-5; OVCAR-5, Ovarian Cancer
  TGI: 23.44 µM
786-0; 786-0, Renal Cancer
  TGI: 15.84 µM
786-0; Homo sapiens, 786-0
  GI50: 4.16 µM
786-0; Homo sapiens, 786-0, read-out: LC50
  CC50: 39.8 µM
A498; A498, Renal Cancer
  TGI: 22.38 µM
A498; Homo sapiens, A498
  GI50: 10.5 µM
A498; Homo sapiens, A498, read-out: LC50
  CC50: 46.8 µM
ACHN; Homo sapiens
  GI50: 12.6 µM
ACHN; Homo sapiens, read-out: LC50
  CC50: 50.1 µM
ACHN; Renal Cancer
  TGI: 25.11 µM
CAKI-1; CAKI-1, Renal Cancer
  TGI: 8.12 µM
CAKI-1; Homo sapiens, CAKI-1
  GI50: 2.39 µM
CAKI-1; Homo sapiens, CAKI-1, read-out: LC50
  CC50: 28.8 µM
RXF 393; Homo sapiens, RXF 393
  GI50: 1.9 µM
RXF 393; Homo sapiens, RXF 393, read-out: LC50
  CC50: 36.3 µM
RXF 393; RXF 393, Renal Cancer
  TGI: 8.51 µM
SN12C; Homo sapiens
  GI50: 1.62 µM
SN12C; Homo sapiens, read-out: LC50
  CC50: 41.7 µM
SN12C; Renal Cancer
  TGI: 12.88 µM
PC-3; Homo sapiens, PC-3
  GI50: 3.8 µM
PC-3; Homo sapiens, PC-3, read-out: LC50
  CC50: 45.7 µM
PC-3; PC-3, Prostate Cancer
  TGI: 16.21 µM
MCF7; Homo sapiens, MCF7
  GI50: 0.79 µM
MCF7; Homo sapiens, MCF7, read-out: LC50
  CC50: 19.5 µM
MCF7; MCF7, Breast Cancer
  TGI: 4.07 µM
NCI/ADR-RES; Breast Cancer
  TGI: 41.68 µM
NCI/ADR-RES; Homo sapiens
  GI50: 15.5 µM
NCI/ADR-RES; Homo sapiens, read-out: LC50
  CC50: > 100 µM
HS 578T; HS 578T, Breast Cancer
  TGI: 5.24 µM
HS 578T; Homo sapiens, Hs-578T
  GI50: 2.04 µM
HS 578T; Homo sapiens, Hs-578T, read-out: LC50
  CC50: 33.9 µM
MDA-MB-435; Homo sapiens, MDA-MB-435
  GI50: 2.95 µM
MDA-MB-435; Homo sapiens, MDA-MB-435, read-out: LC50
  CC50: 28.8 µM
MDA-MB-435; MDA-MB-435, Breast Cancer
  TGI: 12.58 µM
BT-549; BT-549, Breast Cancer
  TGI: 8.51 µM
BT-549; Homo sapiens, BT-549
  GI50: 2.34 µM
BT-549; Homo sapiens, BT-549, read-out: LC50
  CC50: 35.5 µM
MDA-MB-231/ATCC; Homo sapiens, MDA-MB-231
  GI50: < 0.01 µM
MDA-MB-231/ATCC; Homo sapiens, MDA-MB-231, read-out: LC50
  CC50: 75.9 µM
MDA-MB-231/ATCC; MDA-MB-231/ATCC, Breast Cancer
  TGI: 11.48 µM
CNS Cancer cell lines; CNS Cancer subpanel
  TGI, panel MG_MID: 10.76 µM
  TGI, values range inside panel: 4.46 to 15.48 µM
CNS Cancer cell lines; [1]
  GI50: 2.87 µM
CNS Cancer cell lines; [2]
  GI50: 1.77 to 4.07 µM
CNS Cancer cell lines; [3]
  CC50: 38.6 µM
CNS Cancer cell lines; [4]
  CC50: 12.6 to 87.1 µM
Melanoma cell lines; [1]
  GI50: 4.79 µM
Melanoma cell lines; [2]
  GI50: 2.63 to 8.31 µM
Melanoma cell lines; [3]
  CC50: 41.2 µM
Melanoma cell lines; [4]
  CC50: 33.1 to 51.3 µM
Melanoma cell lines; Melanoma subpanel
  TGI, panel MG_MID: 16.49 µM
  TGI, values range inside panel: 11.22 to 20.89 µM
Renal Cancer cell lines; [1]
  GI50: 5.37 µM
Renal Cancer cell lines; [2]
  GI50: 1.62 to 12.6 µM
Renal Cancer cell lines; [3]
  CC50: 40.5 µM
Renal Cancer cell lines; [4]
  CC50: 28.8 to 50.1 µM
Renal Cancer cell lines; Renal Cancer subpanel
  TGI, panel MG_MID: 16.40 µM
  TGI, values range inside panel: 8.12 to 25.11 µM

## Ethyl(Z)-4-(3-(4-chloro-2-((6-oxothiazolo[3,2-b][1,2,4]triazol-5(6H)-ylidene)methyl)phenyl)propanamido)benzoate [Compound 2i]
COLO 205
  GI50: 14.8 µM
  TGI: 31.62 µM
  CC50: 67.6 µM
HOP-62; HOP-62, NSCLC
  GI50: 13.2 µM
  TGI: 26.91 µM
HCC-2998; HCC-2998, Colon cancer
  GI50: 16.6 µM
  TGI: 33.11 µM
HCT-116; HCT-116, Colon cancer
  GI50: 9.55 µM
  TGI: 23.44 µM
HCT-15; HCT-15, Colon cancer
  GI50: 13.8 µM
  TGI: 27.54 µM
HT29; HT29, Colon cancer
  GI50: 12 µM
  TGI: 24.54 µM
SW-620; SW-620, Colon cancer
  GI50: 9.99 µM
  TGI: 21.37 µM
SF-295; SF-295, CNS Cancer
  GI50: 10.5 µM
  TGI: 23.44 µM
SF-539; SF-539, CNS Cancer
  GI50: 12.6 µM
  TGI: 25.11 µM
SNB-75; SNB-75, CNS Cancer
  GI50: 13.2 µM
  TGI: 44.66 µM
LOX IMVI; Melanoma
  GI50: 5.62 µM
  TGI: 18.19 µM
M14; M14, Melanoma
  GI50: 12.6 µM
  TGI: 27.54 µM
SK-MEL-5; SK-MEL-5, Melanoma
  GI50: 10.5 µM
  TGI: 21.87 µM
OVCAR-5; OVCAR-5, Ovarian Cancer
  GI50: 15.5 µM
  TGI: 30.19 µM
786-0; 786-0, Renal Cancer
  GI50: 11.2 µM
  TGI: 23.98 µM
A498; A498, Renal Cancer
  GI50: 17.4 µM
  TGI: 31.62 µM
ACHN; Renal Cancer
  GI50: 15.5 µM
  TGI: 28.84 µM
CAKI-1; CAKI-1, Renal Cancer
  GI50: 10.5 µM
  TGI: 23.98 µM
RXF 393; RXF 393, Renal Cancer
  GI50: 5.75 µM
  TGI: 21.37 µM
SN12C; Renal Cancer
  GI50: 12.6 µM
  TGI: 25.11 µM
PC-3; PC-3, Prostate Cancer
  GI50: 11.2 µM
  TGI: 38.01 µM
MCF7; MCF7, Breast Cancer
  GI50: 5.12 µM
  TGI: 19.05 µM
NCI/ADR-RES; Breast Cancer
  GI50: 21.9 µM
  TGI: 67.60 µM
HS 578T; HS 578T, Breast Cancer
  GI50: 3.54 µM
  TGI: 19.49 µM
MDA-MB-435; MDA-MB-435, Breast Cancer
  GI50: 10.5 µM
  TGI: 25.11 µM
BT-549; BT-549, Breast Cancer
  GI50: 3.8 µM
  TGI: 15.84 µM
MDA-MB-231/ATCC; MDA-MB-231/ATCC, Breast Cancer
  GI50: 12.3 µM
  TGI: 26.91 µM
CNS Cancer cell lines; CNS Cancer subpanel
  TGI, panel MG_MID: 27.42 µM
  TGI, values range inside panel: 19.05 to 44.66 µM
CNS Cancer cell lines; read-out: GI50, panel MG_MID, CNS Cancer subpanel
  GI50: 9.85 µM
CNS Cancer cell lines; read-out: GI50, values range inside panel, CNS Cancer subpanel
  GI50: 6.02 to 13.2 µM
Melanoma cell lines; Melanoma subpanel
  TGI, panel MG_MID: 25.61 µM
  TGI, values range inside panel: 18.19 to 33.11 µM
Melanoma cell lines; read-out: GI50, panel MG_MID, Melanoma subpanel
  GI50: 11.8 µM
Melanoma cell lines; read-out: GI50, values range inside panel, Melanoma subpanel
  GI50: 5.62 to 14.8 µM
Melanoma cell lines; read-out: LC50, panel MG_MID, Melanoma subpanel
  CC50: 55.4 µM
Renal Cancer cell lines; Renal Cancer subpanel
  TGI, panel MG_MID: 27.13 µM
  TGI, values range inside panel: 21.37 to 31.62 µM
Renal Cancer cell lines; read-out: GI50, panel MG_MID, Renal Cancer subpanel
  GI50: 13 µM
Renal Cancer cell lines; read-out: GI50, values range inside panel, Renal Cancer subpanel
  GI50: 5.75 to 17.4 µM
Renal Cancer cell lines; read-out: LC50, values range inside panel, Renal Cancer subpanel
  CC50: 51.3 to 58.9 µM
